Laboratory results: patent US20210308034A1, “PREBIOTIC COMPOSITIONS AND METHODS FOR MAINTAINING A HEALTHY SKIN MICROBIOTA” (KIMBERLY-CLARK WORLDWIDE, INC., priority 2018, published 2021)
Where a SMILES comes first, the peptide text is derived from it.

Test system: Corynebacterium jeikum (ATCC 33033)
Assay: Carbohydrate Screening Test Method (Biolog phenotype microarray), Bacteria Code B
Assay type: cell-based
Conditions: Commensal; carbon microarray plate, OD 600 nm, 36 hr, 33° C.; positive = more than 0.05 OD units above zero; blank cell = not utilized
In short: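 Strain from M9*2 agar was suspended in M9*1 medium, washed and inoculated into Biolog PM1/PM2 carbon plates. Carbohydrate use was scored yes/no, and growth rate and maximum yield were derived with GrowthRates 2.1, with max yields used for commensal ratios.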

Compound	Carbohydrate Screening Results, Bacteria Code B
O=C[C@H](O)[C@@H](O)[C@@H](O)[C@H](O)CO [D-Galactose]	Y

Test system: Klebsiella pneumoniae (ATCC BAA-2146)
Assay: not given
Assay type: cell-based
Conditions: Pathogenic; carbon microarray plate, OD 600 nm, 36 hr, 33° C.; positive = more than 0.05 OD units above zero; blank cell = not utilized

Compound	Carbohydrate Screening Results, Bacteria Code C
O=C[C@H](O)[C@@H](O)[C@@H](O)[C@H](O)CO [D-Galactose]	Y

Test system: Micrococcus luteus (SK58)
Assay: Carbohydrate Screening Test Method (Biolog phenotype microarray), Bacteria Code E
Assay type: cell-based
Conditions: Commensal; carbon microarray plate, OD 600 nm, 36 hr, 33° C.; positive = more than 0.05 OD units above zero; blank cell = not utilized
In short: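 Each commensal strain grown in Biolog carbon phenotype microarray plates with single carbohydrate sources. Growth curves fitted with GrowthRates 2.1 to give growth rate and maximum yield. Max yields used to calculate predicted co-culture ratios between Corynebacterium, Staphylococcus and Micrococcus, compared with desired ratios of 1.3, 1.4 and 1.1.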

Compound	Carbohydrate Screening Results, Bacteria Code E
O=C[C@H](O)[C@@H](O)[C@@H](O)[C@H](O)CO [D-Galactose]	Y

Test system: Pseudomonas aeruginosa (ATCC 9027)
Assay: not given
Assay type: cell-based
Conditions: Pathogenic; carbon microarray plate, OD 600 nm, 36 hr, 33° C.; positive = more than 0.05 OD units above zero; blank cell = not utilized
Description: (§1) After creating desired ratios of various commensal skin bacteria in a healthy skin microbiome, 188 different carbohydrate sources were screened as the next step in determining potential prospects for skin microbiota balancing agents. The screening process was set up to determine which carbohydrate sources promoted commensal and/or pathogenic bacteria as well as to obtain individual and combinations of carbohydrate sources that could serve as microbiota balancing agents that can support or maintain the healthy proportions of commensal skin bacteria of Corynebacterium, Staphylococcus, and Micrococcus. The screening was conducted utilizing Biolog phenotype microarray plates (Hayward, Calif.). Table 1 provides a coded list of the commensal and pathogenic skin bacteria that the carbohydrates were screened against.
(§2) The Bacteria Codes B, D, E, I, and J are commensal bacteria and are shaded in Table 2 for references purposes. The bacteria codes were each placed in a carbon microarray plate and screened through the Carbohydrate Screening Test Method, as described in the Test Methods section herein. If a particular bacteria code utilized a specific carbohydrate source as described in the Carbohydrate Screening Test Method, then the corresponding cell in Table 2 was marked with a Y (short for “Yes”).
(§3) The study employed 10 representative skin bacteria; Staphylococcus epidermidis ATCC 14990, Staphylococcus epidermidis M23864:W2, Staphylococcus aureus ATCC 6538, Staphylococcus aureus ATCC 25904 (Newman), Pseudomonas aeruginosa ATCC 9027, Micrococcus luteus ATCC […], Micrococcus luteus SK58, Klebsiella pneumoniae ATCC BAA-2146, Corynebacterium amycolatum SK46, and Corynebacterium minutissimum ATCC 23348. Cultures were started from freezer bead stocks by placing a single bead into 20 mL of tryptic soy broth (TSB) for all organisms except C. amycolatum SK46 and C. minutissimum ATCC 23348, which were placed into brain heart infusion (BHI) broth. Cultures were grown for about 24 hr at 37° C. except M. luteus ATCC 49732 and M. luteus SK58, which were grown at 30° C. A passage of the culture was made using a sterile swab and streaked onto two M9*2 agar plates to prepare the incubated culture for the phenotype microarray pate according to Table 4. Plates were incubated for about 24 hr at 37° C. except for M. luteus ATCC 49732 and M. luteus SK58, which were incubated at 30° C. for 24 hr.
(§4) All cultures were harvested and washed before inoculation into the carbon microarray plate (BiOLOG, Hayward Calif.), with Biolog Plates PM1 and PM2 each having a source definition of Carbon. The bacteria on the M9*2 agar was suspended via agitation with an inoculating loop in 1 mL of M9*1 media for collection in a 1.7 mL micro centrifuge tube, as noted in Table 4. The bacteria was suspended again in M9*1 media, agitated, and collected into the same 1.7 mL microcentrifuge tube used in the previous step. The tube was centrifuged for 5 minutes at 4,000×G, supernatant decanted, the pellet was resuspended in 1 mL of M9*1 media, and vortex. This washing process was repeated for a total of 4 times.
A tenfold dilution in M9*1 media was performed using 1 mL of the washed bacterial culture. Of the tenfold dilution 200 μL was placed in an untreated 96-well plate (Falcon, Pasadena Tx.) for an initial optical density (OD) reading at a wavelength of 600 nm. The OD was used to correlate to colony forming units (CFU) per milliliter by using linear regression lines for each organism.

Compound	Carbohydrate Screening Results, Bacteria Code F
O=C[C@H](O)[C@@H](O)[C@@H](O)[C@H](O)CO [D-Galactose]	Y

Test system: Staphylococcus epidermidis (M23864:W2)
Assay: Carbohydrate Screening Test Method (Biolog phenotype microarray), Bacteria Code J
Assay type: cell-based
Conditions: Commensal; carbon microarray plate, OD 600 nm, 36 hr, 33° C.; positive = more than 0.05 OD units above zero; blank cell = not utilized
Description: as §1, §2
To do so, the respective microarray data for the 79 carbohydrate sources was run through the GrowthRates 2.1 program to obtain growth parameters, such as growth rates and maximum yield data as described by the Belingham Research Institute, Hall, B. G., H. Acar and M. Barlow. 2014 Growth Rates Made Easy. Mol. Biol. Evol. 31:232-238 doi:10.1093/molbev/mst197. The max yield parameters generated were utilized to calculate ratios of tested commensal bacteria. The ratios calculated were compared back to the desired ratios identified above (Corynebacterium to Staphylococcus of 1.3, Corynebacterium to Micrococcus of 1.4, and Staphylococcus to Micrococcus of 1.1).
As an example of this methodology used to calculate the commensal bacteria ratios and the difference between the calculated ratios and the desired ratios, an example code from Table 3 will be described. […] The max yields were then used to calculate ratios the bacteria would reach in a co-culture.

Compound	Carbohydrate Screening Results, Bacteria Code J
O=C[C@H](O)[C@@H](O)[C@@H](O)[C@H](O)CO [D-Galactose]	Y

Test system: commensal and pathogenic skin bacteria
Assay: Carbohydrate Screening Test Method, all bacteria codes tested
Assay type: cell-based
Conditions: ten bacteria codes of Table 1
Description: as §1, §2, §3, §4
A tenfold dilution in M9*1 media was performed using 1 mL of the washed bacterial culture.

Compound	utilization by the bacteria codes tested
Tween 20	not utilized by any of the bacteria
NCCCC[C@H](N)C(=O)O [L-Lysine]	not utilized by any of the bacteria
OC[C@@H](O)[C@H](O)[C@@H](O)CO [Xylitol]	not utilized by any of the bacteria
N[C@@H](Cc1ccccc1)C(=O)O [L-Phenylalanine]	not utilized by any of the bacteria
Nc1ncnc2c1ncn2C1CC(O)C(CO)O1 (centres unmarked) [2-Deoxy Adenosine]	not utilized by any of the bacteria
NCC(=O)O [Glycine]	not utilized by any of the bacteria
NCC(=O)N1CCC[C@H]1C(=O)O [Glycyl-L-Proline] (H-Gly-Pro-OH)	not utilized by any of the bacteria
OC[C@@H](O)[C@@H](O)CO [i-Erythritol]	not utilized by any of the bacteria
O=C[C@H](O)[C@H](O)[C@H](O)CO [D-Ribose]	not utilized by any of the bacteria
O=C(O)[C@@H](O)[C@H](O)C(=O)O [D-Tartaric Acid]	not utilized by any of the bacteria
O=C[C@@H](O)[C@H](O)[C@@H](O)[C@@H](O)CO [L-Glucose]	not utilized by any of the bacteria
O=C(O)c1ccccc1O [2-Hydroxy Benzoic Acid]	not utilized by any of the bacteria
CCC(C)N (centres unmarked) [Sec-Butylamine]	not utilized by any of the bacteria
OC[C@H]1O[C@@H](O)[C@H](O)[C@H](O)[C@@H]1O [β-D-Allose]	not utilized by any of the bacteria
Glycogen	not utilized by any of the bacteria
O=C(O)Cc1ccc(O)cc1 [p-hydroxy phenyl acetic acid]	not utilized by any of the bacteria
N[C@H](CO)C(=O)O [D-Serine]	not utilized by any of the bacteria
O=C(O)CCCO [y-Hydroxy Butyric Acid]	not utilized by any of the bacteria
OC[C@H](O)C(O)[C@@H](O)CO [L-Arabitol]	not utilized by any of the bacteria
O=C[C@H](O)[C@H](O)[C@@H](O)CO [L-Lyxose]	not utilized by any of the bacteria
COC1OCC(O)C(O)C1O [β-Methyl-D-Xyloside]	not utilized by any of the bacteria
CO[C@H]1O[C@H](CO)[C@@H](O)[C@H](O)[C@H]1O [α-Methyl-D-Glucoside]	not utilized by any of the bacteria
O=C(CO)[C@@H](O)[C@H](O)[C@@H](O)C(=O)O [5-Keto-D-Gluconic Acid]	not utilized by any of the bacteria
2,3-Butanone	not utilized by any of the bacteria
C/C=C/C=C/C(=O)O [Sorbic Acid]	not utilized by any of the bacteria
CCCC(=O)C(=O)O [α-Keto-Valeric Acid]	not utilized by any of the bacteria
Laminarin	not utilized by any of the bacteria
